For experiment [1], the target named is T1, WDR5 (Homo sapiens, UniProt P61964). Description: Fluorescence Polarization (FP) binding assay. Summed up: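 Buffer was pH 6.5 sodium phosphate (80 mM) with 20 mM KCl and 0.008% Triton X-100; 9-Ala-FAM probe at 20 nM used 0.05 μM WDR5 and 480/540 nm polarization, H3 (1-15) probe at 30 nM used 0.3 μM WDR5 and 485/528 nm. Quadruplicate data were hyperbola-fitted to give Kdisp.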
A general note: Polarisation of emitted light reports the rotation of a fluorescent probe.

The next experiment relates to MV4-11 cells. Put plainly: Cell proliferation assay (ATPlite). The experiment is classed as cell-based. Conditions: Homo sapiens, 120 h; MV4-11 cells, five days; read-out: GI MV411 EC50. In a few lines: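 ATPlite luminescence after five days' culture (37° C, 5% CO2) gives viability. Compounds dosed in 10 concentrations up to 10 μM against DMSO; 1,000 cells/well seeded in Alpha-MEM/10% FBS.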
For orientation: In ATP-based viability assays light output follows the ATP content of the culture.

The target of experiment [2] is T1, WDR5. Put plainly: Surface Plasmon Resonance (SPR) assay. The experiment is classed as binding. Details: Full length WDR5 with an N-terminal His tag and C-terminal AviTag; His tag (N); made in house; host or cells: E. coli. Conditions: read-out: SPR Kd. Summed up:
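Full-length biotinylated WDR5 (N-His, C-AviTag, E. coli) captured (~3000 RU) on streptavidin SA chip; Biacore T200. HBS-EP pH 7.4 plus 5% DMSO running buffer, 40 μl/min.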

For 17 compounds, IC50, EC50 and Kd results are on record in US20200385371A1 (Propellon Therapeutics Inc., priority 2017, published 2020).

Counter-ions that a name gives are not always drawn.

With `CC(C)OC(=O)N1CC=C(c2c(F)cc(N3CCN(C)[C@@H](C)C3)c(NC(=O)c3c[nH]c(=O)cc3C(F)(F)F)c2F)CC1` [Example 39, Isopropyl (S)-4-(4-(3,4-dimethylpiperazin-1-yl)-2,6-difluoro-3-(6-oxo-4-(trifluoromethyl)-1,6-dihydropyridine-3-carboxamido)phenyl)-3,6-dihydropyridine-1(2H)-carboxylate], the IC50 on WDR5 [1] was determined as 15.2 nM. Further, in the experiment on MV4-11 cells, the EC50 came to 35.4 nM. On WDR5 [2], the Kd amounted to 1.58 nM.
For `C[C@@H]1CN(c2cc(F)c(C3=CCN(C(=O)OC4(C)CCC4)CC3)c(F)c2NC(=O)c2c[nH]c(=O)cc2C(F)(F)F)C[C@H](C)N1C` [Example 144, 1-Methylcyclobutyl 4-(2,6-difluoro-3-(6-oxo-4-(trifluoromethyl)-1,6-dihydropyridine-3-carboxamido)-4-((3S,5R)-3,4,5-trimethylpiperazin-1-yl)phenyl)-5,6-dihydropyridine-1(2H)-carboxylate], in that order: 12.7 nM, 11.4 nM and 1.53 nM.
As to `COc1cnc(N2CC=C(c3c(F)cc(N4CCN(C)[C@@H](C)C4)c(NC(=O)c4c[nH]c(=O)cc4C(F)F)c3F)C2)nc1` [Example 50, (S)-4-(difluoromethyl)-N-(6-(3,4-dimethylpiperazin-1-yl)-2,4-difluoro-3-(1-(5-methoxypyrimidin-2-yl)-2,5-dihydro-1H-pyrrol-3-yl)phenyl)-6-oxo-1,6-dihydropyridine-3-carboxamide], the concentration for half-maximal inhibition (IC50) at WDR5 [1] was found to be 11.8 nM. Further, the EC50 in the experiment on MV4-11 cells was 83.2 nM. Moreover, the dissociation constant Kd at WDR5 [2] is 0.8 nM.
The matching figures for `C[C@@H]1CN(c2ncc(-c3c(F)cc(N4CCN(C)[C@@H](C)C4)c(NC(=O)c4c[nH]c(=O)cc4C(F)F)c3F)cn2)CCO1` [Example 129, 4-(Difluoromethyl)-N-(6-((S)-3,4-dimethylpiperazin-1-yl)-2,4-difluoro-3-(2-((R)-2-methylmorpholino)pyrimidin-5-yl)phenyl)-6-oxo-1,6-dihydropyridine-3-carboxamide]: 8.79 nM, 13.5 nM and 0.34 nM.
For `C[C@@H]1CN(c2ncc(-c3c(F)cc(N4CCN(C)[C@@H](C)C4)c(NC(=O)c4cn(C)c(=O)cc4C(F)F)c3F)cn2)C[C@H](C)O1` [Example 161, 4-(Difluoromethyl)-N-(3-(2-((2S,6R)-2,6-dimethylmorpholino)pyrimidin-5-yl)-6-((S)-3,4-dimethylpiperazin-1-yl)-2,4-difluorophenyl)-1-methyl-6-oxo-1,6-dihydropyridine-3-carboxamide], in that order: 11.9 nM, 79.3 nM and 1.1 nM.
For `C[C@H]1CN(c2cc(F)c(C3=CCN(c4ncc(F)cn4)CC3)c(F)c2NC(=O)c2c[nH]c(=O)cc2C(F)(F)F)CCN1C` [Example 82, (S)—N-(6-(3,4-dimethylpiperazin-1-yl)-2,4-difluoro-3-(1-(5-fluoropyrimidin-2-yl)-1,2,3,6-tetrahydropyridin-4-yl)phenyl)-6-oxo-4-(trifluoromethyl)-1,6-dihydropyridine-3-carboxamide], in that order: 16 nM, 52.8 nM and 1.22 nM.
`C[C@@H]1CN(c2cc(F)c(C3=CCN(c4ccnc(C#N)n4)CC3)c(F)c2NC(=O)c2c[nH]c(=O)cc2C(F)(F)F)C[C@H](C)N1C` [Example 152, N-(3-(1-(2-cyanopyrimidin-4-yl)-1,2,3,6-tetrahydropyridin-4-yl)-2,4-difluoro-6-((3S,5R)-3,4,5-trimethylpiperazin-1-yl)phenyl)-6-oxo-4-(trifluoromethyl)-1,6-dihydropyridine-3-carboxamide]: the IC50 at WDR5 [1] stood at 15.3 nM. Besides, the concentration for a half-maximal effect (EC50) in the experiment on MV4-11 cells came out at 24 nM. For the same compound, the equilibrium dissociation constant (Kd) at WDR5 [2] came to 0.68 nM.
For `C[C@H]1CN(c2cc(F)c(-c3ccc4c(c3)OCCO4)c(F)c2NC(=O)c2c[nH]c(=O)cc2C(F)(F)F)CCN1C` [Example 185, (S)—N-(3-(2,3-dihydrobenzo[b][1,4]dioxin-6-yl)-6-(3,4-dimethylpiperazin-1-yl)-2,4-difluorophenyl)-6-oxo-4-(trifluoromethyl)-1,6-dihydropyridine-3-carboxamide], in that order: 26.5 nM, 170 nM and 1.29 nM.
Turning to `C[C@H]1CN(c2cc(F)c(C3=CCN(c4ncc(C#N)s4)C3)c(F)c2NC(=O)c2c[nH]c(=O)cc2C(F)(F)F)CCN1C` [Example 96, (S)—N-(3-(1-(5-cyanothiazol-2-yl)-2,5-dihydro-1H-pyrrol-3-yl)-6-(3,4-dimethylpiperazin-1-yl)-2,4-difluorophenyl)-6-oxo-4-(trifluoromethyl)-1,6-dihydropyridine-3-carboxamide], the 50% inhibitory concentration (IC50) at WDR5 [1] amounted to 11.9 nM. The EC50 in the experiment on MV4-11 cells was found to be 70.1 nM. Besides, on WDR5 [2], the Kd came out at 0.51 nM.
As for `C[C@@H]1CN(c2ncc(-c3c(F)cc(N4CCN(C)[C@@H](C)C4)c(NC(=O)c4ccc(F)cc4C(F)F)c3F)cn2)C[C@H](C)O1` [Example 110, 2-(Difluoromethyl)-N-(3-(2-((2S,6R)-2,6-dimethylmorpholino)pyrimidin-5-yl)-6-((S)-3,4-dimethylpiperazin-1-yl)-2,4-difluorophenyl)-4-fluorobenzamide formic acid], the concentration for half-maximal inhibition (IC50) at WDR5 [1] was 10.9 nM. For the same compound, in the experiment on MV4-11 cells, the concentration for a half-maximal effect (EC50) turned out to be 33.2 nM. For the same compound, the equilibrium dissociation constant (Kd) at WDR5 [2] is 1.94 nM.
The matching figures for `COc1cc(N2CC=C(c3c(F)cc(N4CCN(C)[C@@H](C)C4)c(NC(=O)c4c[nH]c(=O)cc4C(F)(F)F)c3F)CC2)ncn1` [Example 76, (S)—N-(6-(3,4-dimethylpiperazin-1-yl)-2,4-difluoro-3-(1-(6-methoxypyrimidin-4-yl)-1,2,3,6-tetrahydropyridin-4-yl)phenyl)-6-oxo-4-(trifluoromethyl)-1,6-dihydropyridine-3-carboxamide]: 21.6 nM, 42 nM and 1.42 nM.
Turning to `C[C@H]1CN(c2ncc(-c3c(F)cc(N4CCN(C)[C@@H](C)C4)c(NC(=O)c4ccc(F)cc4C(F)(F)F)c3F)cn2)C[C@H](C)O1` [Example 166, N-(3-(2-((2S,6S)-2,6-dimethylmorpholino)pyrimidin-5-yl)-6-((S)-3,4-dimethylpiperazin-1-yl)-2,4-difluorophenyl)-4-fluoro-2-(trifluoromethyl)benzamide Formic Acid Salt], at WDR5 [1], the IC50 turned out to be 11.7 nM. The 50% effective concentration (EC50) in the experiment on MV4-11 cells was 63.6 nM. For the same compound, at WDR5 [2], the dissociation constant Kd is 0.73 nM.
Turning to `C[C@@H]1CN(c2cc(F)c(-c3ccc4c(c3)OCCO4)c(F)c2NC(=O)c2c[nH]c(=O)cc2C(F)(F)F)C[C@H](C)N1C` [Example 72, N-(3-(2,3-dihydrobenzo[b][1,4]dioxin-6-yl)-2,4-difluoro-6-((3S,5R)-3,4,5-trimethylpiperazin-1-yl)phenyl)-6-oxo-4-(trifluoromethyl)-1,6-dihydropyridine-3-carboxamide], the half-inhibitory concentration (IC50) at WDR5 [1] came out at 18.2 nM. For the same compound, in the experiment with MV4-11 cells, the half-maximal effective concentration (EC50) worked out at 99.1 nM. Also, the Kd at WDR5 [2] came out at 0.7 nM.
As for `C[C@@H]1CN(c2cc(F)c(-c3cnc(N4CCO[C@@H](C)C4)nc3)c(F)c2NC(=O)c2c[nH]c(=O)cc2C(F)F)C[C@H](C)N1C` [Example 125, N-(2,4-difluoro-3-(2-((S)-2-methylmorpholino)pyrimidin-5-yl)-6-((3S,5R)-3,4,5-trimethylpiperazin-1-yl)phenyl)-4-(difluoromethyl)-6-oxo-1,6-dihydropyridine-3-carboxamide], the IC50 at WDR5 [1] was determined as 11.9 nM. Besides, the EC50 in the experiment on MV4-11 cells came out at 19.4 nM. Also, at WDR5 [2], the dissociation constant Kd came to 0.69 nM.
For the compound `C[C@@H]1CN(c2ccc(-c3c(F)cc(N4CCN(C)[C@@H](C)C4)c(NC(=O)c4ccc(F)cc4C(F)F)c3F)cn2)C[C@H](C)O1` [Example 178, 2-(Difluoromethyl)-N-(3-(6-((2S,6R)-2,6-dimethylmorpholino)pyridin-3-yl)-6-((S)-3,4-dimethylpiperazin-1-yl)-2,4-difluorophenyl)-4-fluorobenzamide], on WDR5 [1], the IC50 came to 19.7 nM. In the experiment on MV4-11 cells, the 50% effective concentration (EC50) came out at 189 nM. The Kd at WDR5 [2] is 1.42 nM.
As for `C[C@H]1CN(c2cc(F)c(C3=CCN(c4ncc(F)cn4)CC3)c(F)c2NC(=O)c2c[nH]c(=O)cc2C(F)F)CCN1C` [Example 81, (S)-4-(difluoromethyl)-N-(6-(3,4-dimethylpiperazin-1-yl)-2,4-difluoro-3-(1-(5-fluoropyrimidin-2-yl)-1,2,3,6-tetrahydropyridin-4-yl)phenyl)-6-oxo-1,6-dihydropyridine-3-carboxamide], the IC50 on WDR5 [1] stood at 12.5 nM. The EC50 in the experiment on MV4-11 cells came out at 44 nM. Moreover, the Kd on WDR5 [2] was 1.37 nM.
Consider `C[C@@H]1CN(c2nccc(-c3c(F)cc(N4CCN(C)[C@@H](C)C4)c(NC(=O)c4cn(C)c(=O)cc4C(F)F)c3F)n2)C[C@H](C)O1` [Example 57, 4-(Difluoromethyl)-N-(3-(2-((2S,6R)-2,6-dimethylmorpholino)pyrimidin-4-yl)-6-((S)-3,4-dimethylpiperazin-1-yl)-2,4-difluorophenyl)-1-methyl-6-oxo-1,6-dihydropyridine-3-carboxamide], for which the half-maximal inhibitory concentration (IC50) on WDR5 [1] was found to be 26.8 nM. Also, in the experiment with MV4-11 cells, the EC50 amounted to 367 nM. Also, the Kd on WDR5 [2] was 7.63 nM.

In general, IC50 refers to the concentration needed to halve the response being measured. As usually defined, the EC50 is the concentration that produces a half-maximal response. As usually defined, the Kd is the equilibrium constant for the complex coming apart.
